# Test results taken from patent publication US5789531A, “Peptide-based inhibitors of HIV replication” (Allex Biopharmaceuticals, Inc., priority 1995, dated 1998).
# Where “and” joins values, the source holds several entries; their conditions need not be identical. Identical values can stand only once. Like-named read-outs stand apart in the source and are kept apart here.
# Key:
# [1] = test system: yeast tRNA; test: TAR binding compared with yeast tRNA binding
# [2] = test system: truncated functional form of TAR RNA (SEQ ID NO:13); test: RNA gel mobility shift TAR-binding assay; design: species or system HIV; conditions: relative to tat (1-86) and the oligopeptide representing the tat basic domain
# Protocol: This assay generally involves the incubation of a selected oligopeptide with gel-purified, radio-labelled TAR RNA, or tat-binding fragment of TAR RNA, that has been produced either by direct synthesis or through transcription of a corresponding DNA template. Samples are loaded onto non-denaturing polyacrylamide gel and subjected to electrophoresis, and then migration of labelled RNA through the gel is visualized on gel-exposed, X-ray film. Oligopeptides which bind TAR are identified in this assay by their characteristic, retarded migration on the gel, relative to TAR RNA to which no oligopeptide has bound. In this mobility shift assay, oligopeptides having an "enhanced" affinity for binding TAR RNA will resolve on the gel as bands which, in addition to displaying the retarded migration pattern characteristic of TAR-binding oligopeptides, will also appear with greater intensity and/or size than a band containing TAR RNA bound to tat (1-86).
# (§1) TAR-binding affinity of the oligopeptides relative to HIV tat(1-86) and relative to tat fragments representing the tat basic domain, was evaluated by RNA gel mobility shift assay using as ligand a truncated functional form of TAR RNA having the sequence (SEQ ID NO:13) shown below.
# Synthesis of the TAR fragment and its variant analogue was accomplished as described by Roy et al. in Genes and Development, 1990, 4:1365. […]
# [3] = test system: HIV (strain NL4-3); assay type: cell-based; conditions: for PH Titers: HuT78 cells, 5 uM pretreatment, 10 uM after infection
# Description: Controls used water in place of peptide.
# [4] = test system: variant of TAR (SEQ ID NO:14) which does not bind tat; test: RNA gel mobility shift assay with non-functional TAR variant (specificity); assay type: binding, HIV; conditions: functional TAR fragment vs non-functional TAR variant
# Protocol: as §1
# Synthesis of the TAR fragment and its variant analogue was accomplished as described by Roy et al. in Genes and Development, 1990, 4:1365. The TAR-binding assay was also performed in the manner reported by Roy et al, supra, which is incorporated herein by reference.
# [5] = test system: HuT78 cells; test: Host cell replication in presence of peptide
# [6] = test system: tat; conditions: Green et al, Cell 1989, 58:215; cited from earlier work
compound,measurement,setting,value
"CC(=O)N[C@H](CCCNC(=N)N)C(=O)N[C@H](CCCNC(=N)N)C(=O)N[C@H](CCCNC(=N)N)C(=O)N[C@H](CCCNC(=N)N)C(=O)N[C@H](CCCNC(=N)N)C(=O)N[C@H](CCCNC(=N)N)C(=O)N[C@H](CCCNC(=N)N)C(=O)N[C@H](CCCNC(=N)N)C(=O)N[C@H](CCCNC(=N)N)C(N)=O [4C, acetyl-[D-Arg]9 --NH2]",specificity of TAR binding compared with yeast tRNA binding,[1],specificity of binding has also been confirmed
same,TAR-binding affinity,[2],TAR-binding affinity comparable to the basic domain of wild type tat
same,PH Titers,"[3]; 7 Day Pretreatment, Day 4 after infection, listed as 4C1",168.4 pg/mL and 98.08 pg/mL
same,PH Titers,"[3]; 7 Day Pretreatment, Day 4 after infection, listed as 4C2",131.5 pg/mL and 93.76 pg/mL
same,PH Titers,"[3]; 14 Day Pretreatment, Day 4 after infection, listed as 4C1",152.5 pg/mL
same,PH Titers,"[3]; 14 Day Pretreatment, Day 4 after infection, listed as 4C2",129.0 pg/mL
same,PH Titers,"[3]; 14 Day Pretreatment, Day 7 after infection, listed as 4C1",175.1 pg/mL
same,PH Titers,"[3]; 14 Day Pretreatment, Day 7 after infection, listed as 4C2",133.6 pg/mL
same,"inhibition of viral replication, as measured by p24 assay","[3]; at the concentration tested (5 uM), FIG. 1",≥ 95%
same,specificity for binding to the functional TAR fragment relative to the TAR variant,[4],specificity comparable to the wild type basic domain
same,inhibition of host cell replication,[5]; 5 uM,no apparent inhibition of host cell replication
same,effect on cell replication,"[5]; 100 uM, separate experiments",no significant detrimental effect on cell replication
"CC(=O)N[C@H](CCCNC(=N)N)C(=O)N[C@H](CCCCN)C(=O)N[C@H](CCCCN)C(=O)N[C@H](CCCNC(=N)N)C(=O)N[C@H](CCCNC(=N)N)C(=O)N[C@H](CCC(N)=O)C(=O)N[C@H](CCCNC(=N)N)C(=O)N[C@H](CCCNC(=N)N)C(=O)N[C@H](CCCNC(=N)N)C(N)=O [4G, acetyl-[D-(Arg--Lys--Lys--Arg--Arg--Gln--Arg--Arg--Arg)]--NH2]",HIV inhibition / resistance to viral infection,[3]; 5 uM concentration,positive effects on HIV inhibition
same,PH Titers,"[3]; 7 Day Pretreatment, Day 4 after infection, listed as 4G1",312.1 pg/mL
same,PH Titers,"[3]; 7 Day Pretreatment, Day 4 after infection, listed as 4G2",336.1 pg/mL
same,PH Titers,"[3]; 7 Day Pretreatment, Day 7 after infection, listed as 4G1",371.5 pg/mL
same,PH Titers,"[3]; 7 Day Pretreatment, Day 7 after infection, listed as 4G2",446.8 pg/mL
same,PH Titers,"[3]; 24 Hrs Pretreatment, Day 4 after infection, listed as 4G1",340.9 pg/mL
same,PH Titers,"[3]; 24 Hrs Pretreatment, Day 4 after infection, listed as 4G2",356.9 pg/mL
same,PH Titers,"[3]; 24 Hrs Pretreatment, Day 7 after infection, listed as 4G1",721.1 pg/mL
same,PH Titers,"[3]; 24 Hrs Pretreatment, Day 7 after infection, listed as 4G2",851.8 pg/mL
Arg--Lys--Lys--Arg--Arg--Gln--Arg--Arg--Arg,tat antagonist activity,[6],Weak tat antagonist activity
